Results on one compound are retold here after patent publication US9085806B2, “Methods for treating infection involving identification of a carbapanemase gene” (priority 2007, dated 2015).

Some results are limits rather than exact numbers.

One test has as its system E. coli ATCC 25922 (Strain ID 300960). As to the kind of experiment: Antimicrobial susceptibility testing, broth microdilution (CLSI). The class given is cell-based. Conditions: Escherichia coli, ATCC25922; Strain ID 300960 ESCCOL, wild-type negative control; Mueller-Hinton broth; read-out: minimum inhibition concentration (MIC). An excerpt:
(§1) Carbapenem-resistant Klebsiella and E. coli were identified by broth microdilution as described by CLSI from the BD ID/AST microbial bank (1). Wild-type (Ampicillin sensitive) E. coli ATCC 25922 (Strain ID 300960) was used through out the experiments as a negative control. Three strains previously determined to contain KPC-1, KPC-2, and KPC-3 (Strain ID 301916=KPC-1, 301917=KPC-2, 301918=KPC-3) were used as positive controls (4). […] ESBL positive strains were identified using the CLSI recommended broth microdilution assay (2). Prior to any processing or extraction, all strains were streaked out on Trypticase Soy Agar (TSA) plates containing 5% Sheep red blood cells (BD Diagnostic Systems, Sparks, Md.) and grown at 35° C. overnight.
(§2) Antimicrobial susceptibility testing was performed using Mueller-Hinton broth (BD Diagnostic Systems, Sparks, Md.) as described by CLSI (1). Antimicrobial powders were acquired from the following companies; Ampicillin (Amp) and Cefotaxime (CTX) (Sigma Chemical Co., St. Louis, Mo.), Ceftazidime (CAZ) (Eli Lilly, Indianapolis, Ind.), Clavulanic acid (Smith-Kline, King of Prussia, Pa.), Imipenem (IPM) (Merck & Co., Rahway, N.J.).
(§3) The BD ID/AST Microbial Bank was screened for carbapenem-resistant Klebsiella and E. coli with broth microdilution as described by CLSI (2). Klebsiella spp. and E. coli were chosen because they are the primary reservoir species for the plasmid-borne KPC gene.
(§4) ESBL positive strains were identified using the CLSI recommended broth microdilution assay (2). Briefly, this broth microdilution assay has a two-fold dilution scheme between a defined range of the antimicrobial agent. For example, where the defined range of the antimicrobial agent is […], the two-fold dilution between wells is represented by 0.25, 0.5, 1, 2, 4, 8, and 16 μg/ml. To identify ESBL positive strains, growth is evaluated in wells containing the antimicrobial agent of interest at these various two-fold dilutions across the defined range either alone or in combination with Clavulanic acid in order to determine the MIC for the antimicrobial agent alone or in combination with Clavulanic acid. […] A wild-type E. coli Strain ID 300960 was also screened and used as a negative control for all of the real-time assays.
`C[C@@H](O)[C@H]1C(=O)N2C(C(=O)O)=C(SCCN=CN)C[C@H]12` [IPM, Imipenem]: the MIC was not above 0.25 µg/mL.

A further test has as its system E. coli Strain ID 301888. The test is described as above. Type of test: cell-based. To be noted: Escherichia coli; Strain ID 301888 ESCCOL, ESBL positive; Mueller-Hinton broth; read-out: minimum inhibition concentration (MIC).
Excerpt: as §1, §2, §3, §4
In the case of `C[C@@H](O)[C@H]1C(=O)N2C(C(=O)O)=C(SCCN=CN)C[C@H]12` [IPM, Imipenem], the MIC is 4 µg/mL.

A further test deals with E. coli Strain ID 301892. The description is as above. The class given is cell-based. To be noted: Escherichia coli; Strain ID 301892 ESCCOL, ESBL positive; Mueller-Hinton broth; read-out: minimum inhibition concentration (MIC).
Excerpt: as §1, §2, §3, §4
On to `C[C@@H](O)[C@H]1C(=O)N2C(C(=O)O)=C(SCCN=CN)C[C@H]12` [IPM, Imipenem], for which the MIC is 4 µg/mL.

A further test deals with E. coli Strain ID 301894. The test is described as above. Type of test: cell-based. Conditions: Escherichia coli; Strain ID 301894 ESCCOL, ESBL positive; Mueller-Hinton broth; read-out: minimum inhibition concentration (MIC).
Excerpt: as §1, §2, §3, §4
Consider `C[C@@H](O)[C@H]1C(=O)N2C(C(=O)O)=C(SCCN=CN)C[C@H]12` [IPM, Imipenem], for which the MIC was not above 2 µg/mL.

Another test has as its system E. coli Strain ID 301896. Described as above. Type of test: cell-based. Conditions: Escherichia coli; Strain ID 301896 ESCCOL, ESBL positive; Mueller-Hinton broth; read-out: minimum inhibition concentration (MIC).
Excerpt: as §1, §2, §3, §4
`C[C@@H](O)[C@H]1C(=O)N2C(C(=O)O)=C(SCCN=CN)C[C@H]12` [IPM, Imipenem]: the MIC is not above 2 µg/mL.

For a further test, the system named is E. coli Strain ID 301905. The test is described as above. Type of test: cell-based. Conditions: Escherichia coli; Strain ID 301905 ESCCOL; Mueller-Hinton broth; read-out: minimum inhibition concentration (MIC).
Excerpt: as §1, §2, §3, §4
Consider `C[C@@H](O)[C@H]1C(=O)N2C(C(=O)O)=C(SCCN=CN)C[C@H]12` [IPM, Imipenem], for which the MIC was 8 µg/mL.

Another test relates to E. coli Strain ID 301918 (KPC-3). Described as above. Type of test: cell-based. To be noted: Escherichia coli; Strain ID 301918 ESCCOL, KPC-3 positive control; Mueller-Hinton broth; read-out: minimum inhibition concentration (MIC).
Excerpt: as §1, §2, §3, §4
`C[C@@H](O)[C@H]1C(=O)N2C(C(=O)O)=C(SCCN=CN)C[C@H]12` [IPM, Imipenem]: the MIC amounted to 16 µg/mL.

A further test concerns E. coli Strain ID 301921. Described as above. Type of test: cell-based. Conditions: Escherichia coli; Strain ID 301921 ESCCOL, ESBL positive; Mueller-Hinton broth; read-out: minimum inhibition concentration (MIC).
Excerpt: as §1, §2, §3, §4
As to `C[C@@H](O)[C@H]1C(=O)N2C(C(=O)O)=C(SCCN=CN)C[C@H]12` [IPM, Imipenem], the MIC is not above 2 µg/mL.

A further test relates to E. coli Strain ID 301922. The test is described as above. The class given is cell-based. To be noted: Escherichia coli; Strain ID 301922 ESCCOL, ESBL positive; Mueller-Hinton broth; read-out: minimum inhibition concentration (MIC).
Excerpt: as §1, §2, §3, §4
For `C[C@@H](O)[C@H]1C(=O)N2C(C(=O)O)=C(SCCN=CN)C[C@H]12` [IPM, Imipenem], the MIC is not above 0.25 µg/mL.

The subject of a further test is E. coli Strain ID 303364. Described as above. The class given is cell-based. Conditions: Escherichia coli; Strain ID 303364 ESCCOL; Mueller-Hinton broth; read-out: minimum inhibition concentration (MIC).
Excerpt: as §1, §2, §3, §4
Regarding `C[C@@H](O)[C@H]1C(=O)N2C(C(=O)O)=C(SCCN=CN)C[C@H]12` [IPM, Imipenem], the MIC is not above 2 µg/mL.

The test system of another test is E. coli Strain ID 303365. The description is as above. Conditions: Escherichia coli; Strain ID 303365 ESCCOL, ESBL positive; Mueller-Hinton broth; read-out: minimum inhibition concentration (MIC). Type of test: cell-based.
Excerpt: as §1, §2, §3, §4
With `C[C@@H](O)[C@H]1C(=O)N2C(C(=O)O)=C(SCCN=CN)C[C@H]12` [IPM, Imipenem], the MIC was not above 2 µg/mL.

The test system of another test is E. coli Strain ID 303369. Described as above. The class given is cell-based. To be noted: Escherichia coli; Strain ID 303369 ESCCOL; Mueller-Hinton broth; read-out: minimum inhibition concentration (MIC).
Excerpt: as §1, §2, §3, §4
Take `C[C@@H](O)[C@H]1C(=O)N2C(C(=O)O)=C(SCCN=CN)C[C@H]12` [IPM, Imipenem]: the MIC is not above 2 µg/mL.

The subject of a further test is Klebsiella oxytoca Strain ID 300967. The description is as above. Type of test: cell-based. Conditions: Strain ID 300967 KLEOXY, Mueller-Hinton broth, read-out: minimum inhibition concentration (MIC).
Excerpt: as §1, §2, §3, §4
Regarding `C[C@@H](O)[C@H]1C(=O)N2C(C(=O)O)=C(SCCN=CN)C[C@H]12` [IPM, Imipenem], the MIC was more than 16 µg/mL.

Another test has as its system Klebsiella oxytoca Strain ID 303990. Described as above. The class given is cell-based. Conditions: Strain ID 303990 KLEOXY, Mueller-Hinton broth, read-out: minimum inhibition concentration (MIC).
Excerpt: as §1, §2, §3, §4
Regarding `C[C@@H](O)[C@H]1C(=O)N2C(C(=O)O)=C(SCCN=CN)C[C@H]12` [IPM, Imipenem], the MIC was found to be 16 µg/mL.

The next test deals with Klebsiella pneumoniae Strain ID 300996. The description is as above. To be noted: Strain ID 300996 KLEPNEP, ESBL positive, Mueller-Hinton broth, read-out: minimum inhibition concentration (MIC). The class given is cell-based.
Excerpt: as §1, §2, §3, §4
As for `C[C@@H](O)[C@H]1C(=O)N2C(C(=O)O)=C(SCCN=CN)C[C@H]12` [IPM, Imipenem], the MIC is 8 µg/mL.

The next test deals with Klebsiella pneumoniae Strain ID 301008. Described as above. The class given is cell-based. To be noted: Strain ID 301008 KLEPNEP, Mueller-Hinton broth, read-out: minimum inhibition concentration (MIC).
Excerpt: as §1, §2, §3, §4
For `C[C@@H](O)[C@H]1C(=O)N2C(C(=O)O)=C(SCCN=CN)C[C@H]12` [IPM, Imipenem], the MIC was not above 2 µg/mL.

The subject of the next test is Klebsiella pneumoniae Strain ID 301891. The test is described as above. Conditions: Strain ID 301891 KLEPNEP, Mueller-Hinton broth, read-out: minimum inhibition concentration (MIC). Type of test: cell-based.
Excerpt: as §1, §2, §3, §4
On to `C[C@@H](O)[C@H]1C(=O)N2C(C(=O)O)=C(SCCN=CN)C[C@H]12` [IPM, Imipenem], for which the MIC is not above 2 µg/mL.

A further test concerns Klebsiella pneumoniae Strain ID 301898. The test is described as above. The class given is cell-based. To be noted: Strain ID 301898 KLEPNEP, Mueller-Hinton broth, read-out: minimum inhibition concentration (MIC).
Excerpt: as §1, §2, §3, §4
With `C[C@@H](O)[C@H]1C(=O)N2C(C(=O)O)=C(SCCN=CN)C[C@H]12` [IPM, Imipenem], the MIC worked out at 4 µg/mL.

The test system of a further test is Klebsiella pneumoniae Strain ID 301899. The description is as above. Type of test: cell-based. To be noted: Strain ID 301899 KLEPNEP, Mueller-Hinton broth, read-out: minimum inhibition concentration (MIC).
Excerpt: as §1, §2, §3, §4
Take `C[C@@H](O)[C@H]1C(=O)N2C(C(=O)O)=C(SCCN=CN)C[C@H]12` [IPM, Imipenem]: the MIC was 4 µg/mL.

The subject of the next test is Klebsiella pneumoniae Strain ID 301916 (KPC-1). Described as above. The class given is cell-based. To be noted: Strain ID 301916 KLEPNEP, KPC-1 positive control, Mueller-Hinton broth, read-out: minimum inhibition concentration (MIC).
Excerpt: as §1, §2, §3, §4
Consider `C[C@@H](O)[C@H]1C(=O)N2C(C(=O)O)=C(SCCN=CN)C[C@H]12` [IPM, Imipenem], for which the MIC was determined as 8 µg/mL.

The next test relates to Klebsiella pneumoniae Strain ID 301917 (KPC-2). Described as above. The class given is cell-based. Conditions: Strain ID 301917 KLEPNEP, KPC-2 positive control, ESBL positive, Mueller-Hinton broth, read-out: minimum inhibition concentration (MIC).
Excerpt: as §1, §2, §3, §4
Turning to `C[C@@H](O)[C@H]1C(=O)N2C(C(=O)O)=C(SCCN=CN)C[C@H]12` [IPM, Imipenem], the MIC is 8 µg/mL.

The next test has as its system Klebsiella pneumoniae Strain ID 301919. The test is described as above. The class given is cell-based. Conditions: Strain ID 301919 KLEPNEP, ESBL positive, Mueller-Hinton broth, read-out: minimum inhibition concentration (MIC).
Excerpt: as §1, §2, §3, §4
In the case of `C[C@@H](O)[C@H]1C(=O)N2C(C(=O)O)=C(SCCN=CN)C[C@H]12` [IPM, Imipenem], the MIC was not above 2 µg/mL.

For a further test, the system named is Klebsiella pneumoniae Strain ID 301920. Described as above. To be noted: Strain ID 301920 KLEPNEP, ESBL positive, Mueller-Hinton broth, read-out: minimum inhibition concentration (MIC). The class given is cell-based.
Excerpt: as §1, §2, §3, §4
Consider `C[C@@H](O)[C@H]1C(=O)N2C(C(=O)O)=C(SCCN=CN)C[C@H]12` [IPM, Imipenem], for which the MIC is not above 2 µg/mL.

The subject of a further test is Klebsiella pneumoniae Strain ID 303375. The test is described as above. The class given is cell-based. Conditions: Strain ID 303375 KLEPNEP, Mueller-Hinton broth, read-out: minimum inhibition concentration (MIC).
Excerpt: as §1, §2, §3, §4
Consider `C[C@@H](O)[C@H]1C(=O)N2C(C(=O)O)=C(SCCN=CN)C[C@H]12` [IPM, Imipenem], for which the MIC is not above 2 µg/mL.
